Consider 15 compounds from ChEMBL document CHEMBL2380191, “Novel racemic tetrahydrocurcuminoid dihydropyrimidinone analogues as potent acetylcholinesterase inhibitors” (Bioorg Med Chem Lett, 2013).

The target of this assay is Acetylcholinesterase (Electrophorus electricus, UniProt O42275). Briefly: Inhibition of electric eel AChE using acetylthiocholine iodide as substrate after 15 mins by Ellman's method.
Acetylcholinesterase, sequence (O42275 whole entry): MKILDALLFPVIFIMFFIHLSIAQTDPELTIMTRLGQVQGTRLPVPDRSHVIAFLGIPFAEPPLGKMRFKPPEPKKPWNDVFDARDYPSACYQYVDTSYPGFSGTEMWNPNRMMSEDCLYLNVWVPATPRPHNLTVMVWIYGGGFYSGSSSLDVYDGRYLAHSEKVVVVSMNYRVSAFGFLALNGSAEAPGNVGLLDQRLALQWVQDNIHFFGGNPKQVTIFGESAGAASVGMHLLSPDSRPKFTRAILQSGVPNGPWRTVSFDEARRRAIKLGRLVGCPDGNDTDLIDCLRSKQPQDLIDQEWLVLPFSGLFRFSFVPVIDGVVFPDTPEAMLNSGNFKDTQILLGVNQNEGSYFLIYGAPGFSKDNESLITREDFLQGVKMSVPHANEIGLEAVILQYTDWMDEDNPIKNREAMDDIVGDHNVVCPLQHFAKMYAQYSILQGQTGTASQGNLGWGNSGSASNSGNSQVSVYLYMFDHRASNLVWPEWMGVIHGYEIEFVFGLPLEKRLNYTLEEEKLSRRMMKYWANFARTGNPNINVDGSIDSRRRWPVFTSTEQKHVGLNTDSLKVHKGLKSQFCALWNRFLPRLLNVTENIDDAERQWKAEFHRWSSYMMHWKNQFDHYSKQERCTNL
`COc1cc(CCC(=O)C2=C(CCc3ccc(O)c(OC)c3)NC(=O)NC2c2ccccc2)ccc1O` (racemic) displayed an IC50 of 36.3 µM.
To `COc1cc(CCC(=O)C2=C(CCc3ccc(O)c(OC)c3)NC(=O)NC2c2ccc(O)cc2)ccc1O` (racemic) belongs 17.3 µM; to `COc1ccc(C2NC(=O)NC(CCc3ccc(O)c(OC)c3)=C2C(=O)CCc2ccc(O)c(OC)c2)cc1` (racemic), 14.3 µM; to `COc1cc(CCC(=O)C2=C(CCc3ccc(O)c(OC)c3)NC(=O)NC2c2ccc(O)c(OC)c2)ccc1O` (racemic), 56.4 µM.
The value for `COc1cc(CCC(=O)C2=C(CCc3ccc(O)cc3)NC(=O)NC2c2ccccc2)ccc1O` (racemic) was 10.7 µM; that for `COc1cc(CCC2=C(C(=O)CCc3ccc(O)cc3)C(c3ccccc3)NC(=O)N2)ccc1O` (racemic) was 20.9 µM.
To `COc1ccc(C2NC(=O)NC(CCc3ccc(O)cc3)=C2C(=O)CCc2ccc(O)c(OC)c2)cc1` (racemic) belongs 5.78 µM; to `COc1ccc(C2NC(=O)NC(CCc3ccc(O)c(OC)c3)=C2C(=O)CCc2ccc(O)cc2)cc1` (racemic), 9.1 µM.
On to `O=C1NC(CCc2ccc(O)cc2)=C(C(=O)CCc2ccc(O)cc2)C(c2ccccc2)N1` (racemic), for which the IC50 came to 2.04 µM.
The value for `COc1ccc(C2NC(=O)NC(CCc3ccc(O)cc3)=C2C(=O)CCc2ccc(O)cc2)cc1` (racemic) was 1.34 µM; that for `O=C(/C=C/c1ccc(O)cc1)CC(=O)/C=C/c1ccc(O)cc1` [BISDEMETHOXYCURCUMIN] was 18.3 µM; that for `COc1cc(/C=C/C(O)=C/C(=O)/C=C/c2ccc(O)cc2)ccc1O` [DEMETHOXYCURCUMIN] was 37.7 µM.
As to `O=C(CCc1ccc(O)cc1)CC(=O)CCc1ccc(O)cc1` [LETESTUIANIN C], the IC50 was found to be 7.89 µM.
Regarding `COc1cc(CCC(=O)CC(=O)CCc2ccc(O)c(OC)c2)ccc1O` [TETRAHYDROCURCUMIN], it took 41.2 µM to reach half-maximal inhibition (IC50).
The value for `COc1cc(CCC(=O)CC(=O)CCc2ccc(O)cc2)ccc1O` [TETRAHYDRODEMETHOXYCURCUMIN] was 20.6 µM.
